Measured values reported in patent US10030016B2 (Sunesis Pharmaceuticals, Inc., priority 2009, dated 2018).
Where two headings read alike, the source gives them in different places.

Columns and labels:
[1] = test system: phospho-akt (Thr308) in PC-3 cells; experiment: Inhibition of phospho-akt (Thr308) in PC-3 cells, MSD phospho-akt 308 ELISA kit; assay type: cell-based; conditions: Homo sapiens, inhibition of P308 Akt in PC-3 cells using MSD, 2 hours, no serum, read-out: EC50
Procedure, shortened: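 Read-out is MSD electrochemiluminescence of Akt phosphorylated at Thr308 in lysates of PC-3 cells treated 2 h with compound in serum-free medium. Wortmannin at 5 μM defined the low control and DMSO the high control.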

PDK1 = PDK1 (Homo sapiens (Human), UniProt O15530); experiment: PDK1 kinase assay (coupled PDK1/AKT/FAM-crosstide assay, IMAP fluorescence polarization); assay type: biochemical; conditions: inhibition of PDK1 in vitro
Procedure, shortened: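 GST-tagged human PDK1 (aa 51-359, 0.75 nM) from insect cells activated unphosphorylated GST-AKT2 (aa 140-467–PIFtide fusion, 10 nM), which phosphorylated 100 nM FAM-crosstide; 40 μM ATP, pH 7.2 Tris/MgCl2, 30 min at 25° C. IMAP fluorescence polarization read-out; ΔmP versus compound concentration fitted with a 4-parameter curve.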

Chain of PDK1 (O15530 51-359): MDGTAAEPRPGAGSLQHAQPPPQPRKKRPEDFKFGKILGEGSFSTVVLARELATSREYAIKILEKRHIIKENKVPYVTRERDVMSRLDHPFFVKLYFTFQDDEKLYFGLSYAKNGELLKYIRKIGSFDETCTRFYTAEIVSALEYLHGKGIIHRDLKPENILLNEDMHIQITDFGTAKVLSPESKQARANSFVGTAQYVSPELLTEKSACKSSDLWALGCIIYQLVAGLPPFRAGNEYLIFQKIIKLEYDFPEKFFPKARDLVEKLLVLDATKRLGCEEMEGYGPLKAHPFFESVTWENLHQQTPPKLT

Row | EC50 [1] | IC50 (PDK1) | EC50 ([1]; PC-3, 2 h) | Structure (SMILES)
1 | > 10 µM | 0.1 to 1 µM | – | Nc1cnc(-c2ccc(CNc3ncc(C(F)(F)F)cc3C(=O)NCc3ccc(F)c(F)c3)cn2)cn1 [Example 326]
2 | 1 to 10 µM | < 0.1 µM | – | O=C(NCc1ccc(F)c(F)c1)c1cccnc1NCc1ccc(-c2cnc3[nH]ncc3c2)nc1 [Example 327]
3 | > 10 µM | < 0.1 µM | – | O=C(NCc1ccc(F)c(F)c1)c1cccnc1NCc1ccc(-c2cnc3[nH]ccc3c2)nc1 [Example 328]
4 | < 1 µM | < 0.1 µM | – | Nc1ncnc2[nH]nc(-c3ccc(CNc4ncc(C(F)(F)F)cc4C(=O)NCc4ccc(F)c(F)c4)cc3)c12 [Example 329, 2-[4-(4-Amino-1H-pyrazolo [3,4-d]pyrimidin-3-yl)-benzylamino]-N-(3,4-difluoro-benzyl)-5-trifluoromethyl-nicotinamide]
5 | < 1 µM | < 0.1 µM | – | Nc1ncnc2[nH]cc(-c3ccc(CNc4ncc(C(F)(F)F)cc4C(=O)NCc4ccc(F)c(F)c4)cc3)c12 [Example 330, 2-[4-(4-Amino-7H-pyrrolo [2,3-d]pyrimidin-5-yl)-benzylamino]-N-(3,4-difluoro-benzyl)-5-trifluoromethyl-nicotinamide]
6 | < 1 µM | < 0.1 µM | – | Cn1cc(-c2ccc(CNc3ncc(C(F)(F)F)cc3C(=O)NCc3ccc(F)c(F)c3)cc2)c2c(N)ncnc21 [Example 331, 2-(4-(4-amino-7-methyl-7H-pyrrolo[2,3-d]pyrimidin-5-yl)-benzylamino)-N-(3,4-difluorobenzyl)-5-(trifluoromethyl)nicotinamide]
7 | 1 to 10 µM | < 0.1 µM | – | Cn1nc(-c2ccc(CNc3ncc(C(F)(F)F)cc3C(=O)NCc3ccc(F)c(F)c3)cc2)c2c(N)ncnc21 [Example 332, 2-(4-(4-amino-1-methyl-1H-pyrazolo[3,4-d]pyrimidin-3-yl)-benzylamino)-N-(3,4-difluorobenzyl)-5-(trifluoromethyl)nicotinamide]
8 | < 1 µM | < 0.1 µM | – | Nc1ncnc2c1c(-c1ccc(CNc3ncc(C(F)(F)F)cc3C(=O)NCc3ccc(F)c(F)c3)cc1)cn2CCO [Example 333, 2-(4-(4-amino-7-(2-hydroxyethyl)-7H-pyrrolo[2,3-d]pyrimidin-5-yl)-benzylamino)-N-(3,4-difluorobenzyl)-5-(trifluoromethyl)nicotinamide]
9 | < 1 µM | < 0.1 µM | – | Nc1ncnc2c1c(-c1ccc(CNc3ncc(C(F)(F)F)cc3C(=O)NCc3ccc(F)c(F)c3)cc1)cn2CCCO [Example 334, 2-(4-(4-amino-7-(3-hydroxypropyl)-7H-pyrrolo[2,3-d]pyrimidin-5-yl)-benzylamino)-N-(3,4-difluorobenzyl)-5-(trifluoromethyl)nicotinamide]
10 | > 10 µM | < 0.1 µM | – | CC(C)Oc1cc(CNc2ncccc2C(=O)NCc2ccc(F)c(F)c2)cc(-c2c[nH]c3ncc(-c4ccc[nH]4)cc23)c1 [Example 335, 2-(3-(5-(1H-pyrrol-2-yl)-1H-pyrrolo[2,3-b]pyridin-3-yl)-5-isopropoxybenzylamino)-N-(3,4-difluorobenzyl) nicotinamide]
11 | 1 to 10 µM | < 0.1 µM | – | O=C(NCc1ccc(F)c(F)c1)c1cccnc1NCc1cc(-c2c[nH]c3ncc(-c4ccc[nH]4)cc23)ccn1 [Example 336]
12 | 1 to 10 µM | < 0.1 µM | – | Cn1c(-c2ccc(CNc3ncc(C(F)(F)F)cc3C(=O)Nc3ccc(F)cc3)cc2)cc2c(N)ncnc21 [Example 337, 2-(4-(4-amino-7-methyl-7H-pyrrolo[2,3-d]pyrimidin-6-yl)-benzylamino)-N-(4-fluorophenyl)-5-(trifluoromethyl)nicotinamide]
13 | 1 to 10 µM | < 0.1 µM | – | Cn1cc(-c2ccc(CNc3ncc(C(F)(F)F)cc3C(=O)Nc3ccc(F)cn3)cc2)c2c(N)ncnc21 [Example 338, 2-(4-(4-amino-7-methyl-7H-pyrrolo[2,3-d]pyrimidin-5-yl)-benzylamino)-N-(5-fluoropyridin-2-yl)-5-(trifluoromethyl)nicotinamide]
14 | – | 0.1 to 1 µM | > 10 µM | C[C@H](NC(=O)c1nc(C#N)cnc1NCC1CCC(c2cn(C)c3ncnc(N)c23)CC1)c1ccc(F)c(F)c1 (some centres unmarked) [Example 339]
15 | 1 to 10 µM | > 5 µM | – | C[C@H](NC(=O)c1nc(C#N)cnc1NCC1CCC(c2cc3c(N)ncnc3n2C)CC1)c1ccc(F)c(F)c1 (some centres unmarked) [Example 340]
16 | > 10 µM | > 5 µM | – | CNC(=O)c1cc(S(=O)(=O)NCCCN(C)C)cnc1NCc1ccc(-c2ccc3ncnc(N)c3c2)s1 [Example 341]
17 | > 10 µM | > 5 µM | – | CNC(=O)c1cc(S(=O)(=O)NCCO)cnc1NCc1ccc(-c2ccc3ncnc(N)c3c2)s1 [Example 342]
18 | < 1 µM | < 0.1 µM | – | Nc1ncnc2ccc(-c3ccc(CNc4ncc(S(=O)(=O)NCCO)cc4C(=O)NCc4ccc(F)c(F)c4)s3)cc12 [Example 343, 2-((5-(4-aminoquinazolin-6-yl)thiophen-2-yl)methyl)amino)-(N-(3,4-difluorobenzyl)-5-(N-(2-hydroxyethyl)sulfamoyl)nicotinamide]

The remaining lines, values behind:

Row | Structure (SMILES) | EC50 [1] | IC50 (PDK1) | EC50 ([1]; PC-3, 2 h)
19 | N#Cc1cnc(NCc2ccc(Oc3cccnc3N)cc2)c(C(=O)NCc2ccc(F)c(F)c2)c1 [Example 313, 2-(4-(2-aminopyridin-3-yloxy)benzylamino)-5-cyano-N-(3,4-difluorobenzyl) nicotinamide] | > 10 µM | > 5 µM | –
20 | N#Cc1cnc(NCc2ccc(Oc3cc(N)ncn3)cc2)c(C(=O)NCc2ccc(F)c(F)c2)c1 [Example 314, 2-(4-(6-aminopyrimidin-4-yloxy)benzylamino)-5-cyano-N-(3,4-difluorobenzyl)nicotinamide] | > 10 µM | 1 to 5 µM | –
21 | C[C@H](NC(=O)c1nc(C#N)cnc1NCc1ccc(-c2c[nH]c3ncnc(N)c23)cc1)c1ccc(F)c(F)c1 [Example 315, (S)-3-(4-(4-amino-7H-pyrrolo[2,3-d]pyrimidin-5-yl)benzylamino)-6-cyano-N-(1-(3,4-difluoro-phenyl)ethyl)pyrazine-2-carboxamide] | < 1 µM | < 0.1 µM | –
22 | C[C@H](NC(=O)c1nc(C#N)cnc1NCc1ccc(-c2cn(CCCN(C)C)c3ncnc(N)c23)cc1)c1ccc(F)c(F)c1 [Example 316, (S)-3-(4-(4-amino-7-(3-(dimethylamino)propyl)-7H-pyrrolo[2,3-d]pyrimidin-5-yl)benzylamino)-6-cyano-N-(1-(3,4-difluoro-phenyl)ethyl)pyrazine-2-carboxamide] | 1 to 10 µM | < 0.1 µM | –
23 | COCCCn1cc(-c2ccc(CNc3ncc(C#N)nc3C(=O)N[C@@H](C)c3ccc(F)c(F)c3)cc2)c2c(N)ncnc21 [Example 317, (S)-3-(4-(4-amino-7-(3-methoxypropyl)-7H-pyrrolo[2,3-d]pyrimidin-5-yl)benzylamino)-6-cyano-N-(1-(3,4-difluoro-phenyl)ethyl)pyrazine-2-carboxamide] | < 1 µM | < 0.1 µM | –
24 | C[C@H](NC(=O)c1nc(C#N)cnc1NCc1ccc(-c2cn(CCCN)c3ncnc(N)c23)cc1)c1ccc(F)c(F)c1 [Example 318, (S)-3-(4-(4-amino-7-(3-aminopropyl)-7H-pyrrolo[2,3-d]pyrimidin-5-yl)benzylamino)-6-cyano-N-(1-(3,4-difluoro-phenyl)ethyl)pyrazine-2-carboxamide] | < 1 µM | < 0.1 µM | –
25 | C[C@H](NC(=O)c1nc(C#N)cnc1NCc1ccc(-c2cn(CCN)c3ncnc(N)c23)cc1)c1ccc(F)c(F)c1 [Example 319, (S)-3-(4-(4-amino-7-(2-aminoethyl)-7H-pyrrolo[2,3-d]pyrimidin-5-yl)benzylamino)-6-cyano-N-(1-(3,4-difluoro-phenyl)ethyl)pyrazine-2-carboxamide] | < 1 µM | < 0.1 µM | –
26 | N#Cc1cnc(NCc2ccc(-c3c[nH]c4ncnc(N)c34)cc2)c(C(=O)Nc2ccc(F)cc2)n1 [Example 320, 3-(4-(4-amino-7H-pyrrolo[2,3-d]pyrimidin-5-yl)benzylamino)-6-cyano-N-(4-fluorophenyl) pyrazine-2-carboxamide] | < 1 µM | < 0.1 µM | –
27 | Nc1ncnc2[nH]cc(-c3ccc(CNc4ncc(C(F)(F)F)cc4C(=O)Nc4ccc(F)cc4)cc3)c12 [Example 321, 2-(4-(4-amino-7H-pyrrolo [2,3-d]pyrimidin-5-yl)benzylamino)-N-(4-fluorophenyl)-5-(trifluoromethyl)nicotinamide] | < 1 µM | < 0.1 µM | –
28 | Nc1ncnc2c1c(-c1ccc(CNc3ncc(C(F)(F)F)cc3C(=O)Nc3ccc(F)cc3)cc1)cn2CCCO [Example 322, 2-(4-(4-amino-7-(3-hydroxypropyl)-7H-pyrrolo [2,3-d]pyrimidin-5-yl)benzylamino)-N-(4-fluorophenyl)-5-(trifluoromethyl)nicotinamide] | < 1 µM | < 0.1 µM | –
29 | Cn1cc(-c2ccc(CNc3ncc(C(F)(F)F)cc3C(=O)Nc3ccc(F)cc3)cc2)c2c(N)ncnc21 [Example 323, 2-(4-(4-amino-7-methyl-7H-pyrrolo[2,3-d]pyrimidin-5-yl)benzylamino)-N-(4-fluorophenyl)-5-(trifluoromethyl)nicotinamide] | < 1 µM | < 0.1 µM | –
30 | Nc1ncnc2c1c(-c1ccc(CNc3ncc(C(F)(F)F)cc3C(=O)Nc3ccc(F)cc3)cc1)cn2CCO [Example 324, 2-(4-(4-amino-7-(2-hydroxyethyl)-7H-pyrrolo [2,3-d]pyrimidin-5-yl)benzylamino)-N-(4-fluorophenyl)-5-(trifluoromethyl)nicotinamide] | < 1 µM | < 0.1 µM | –
31 | Nc1cnc(-c2ccc(CNc3ncc(C(F)(F)F)cc3C(=O)Nc3ccc(F)cc3)cn2)cn1 [Example 325] | – | 0.1 to 1 µM | 1 to 10 µM
